Laboratory results: patent publication US20220401428A1, “Method for Treatment of Alzheimer's Disease” (University of Kentucky Research Foundation, priority 2019, published 2022)

How the values were obtained:
LRP1 = LRP1 protein expression in rat brain microvascular ECs (Western blot, immunofluorescence); format: cell-based
Description: To study the role of miRNA signaling in amylin-induced suppression of endothelial LRP1 expression, transfection of rat brain microvascular ECs was used with miR-103-3p (MCR01039)[…](SEQ ID NO: 5), miR-107-3p (MCR01045)[…](SEQ ID NO: 6) and control (MCH00000) (https://www.abmgood.com/mirna-mimic-negative-control-mch00000.html). Antagomir miR-103-3p (IH-320345-05-0005)(SEQ ID NO: 5), miR-107-3p (IH-320348-05-0005)(SEQ ID NO: 6) and negative control (IN-001005-01-05) (https://www.biocompare.com/22445-RNA/4995709-miRIDIAN-microRNA-Hairpin-Inhibitor-Negative-Control-1-5-nmol/#productspecs) (Dharmacon Inc.) were used in an attempt to rescue LRP1 expression. All transfections were done using RNAiMAX (Invitrogen) as per manufacturer's recommended protocol. Briefly, ECs were plated at 50% confluency in 6-well plates followed by co-transfection with either 100 nM of 103-3p and 107-3p mimics or antagomirs along with their respective negative controls. After 12-hours, antagomir-treated cell groups were further treated with 10 uM human amylin for 24-hours. After 36-hours of transfection, cells were harvested for Western blot analysis.
In immunofluorescence experiments, formalin-fixed, paraffin-embedded human brain tissue was used and processed as previously described^16,18,39, brain capillaries from HIP and WT rats isolated as previously described^18. and cultured ECs. Anti-amylin (1:200; clone E5; SC-377530; Santa Cruz), anti-collagen IV (1:500; ab6586; abcam), anti-alpha smooth muscle actin-Alexa Fluor 405 (1:200; ab210128, abcam), anti-caveolin-1 (1:100; sc-894; Santa Cruz, Tex.), anti-LRP1 (1:500; sc-57351; Santa Cruz), anti-4HNE (1:200; ab46545; abcam) were the primary antibodies. Secondary antibodies were: Alexa Fluor 488 conjugated anti-mouse IgG (1:300; A11029; Invitrogen), Alexa Fluor 568 conjugated anti-rabbit IgG (1:200; A11036; Invitrogen), Alexa Fluor 568 conjugated anti-mouse IgG (1:300; A11004; Invitrogen). Nuclei were counterstained with DAPI mounting media. For triple staining of human brain tissues, smooth muscle actin-Alexa Fluor 405 antibody was added after staining with human amylin and collagen IV; DAPI free mounting media was used. For Thioflavin S staining, after secondary antibody incubation, brain slides were incubated in 0.5% Thioflavin S for 30 minutes at room temperature. Slides were then incubated for 3 minutes in 70% ethanol, 5 minutes in 0.2% Sudan black before washing and mounting. Immunocytochemistry was performed as described previously (39, 40).
Western blot analysis was performed on isolated brain capillaries, brain tissue homogenate and plasma from rats. Tissues were processed as described previously^16,18,28,39. RIPA buffer with 2% SDS was used to retrieve Aβ monomers from frozen brain samples^41. […]

ADHIP rats [1] = experiment: Hypoxia markers in brain and brain capillary lysates of sEHi-treated ADHIP rats; format: in vivo, rat; conditions: treated vs untreated, HIF-1α, HIF-2α, Arg-1, Arg-2, arginase activity, mitochondrial DNA
Method: Pharmacological treatment on animals To increase plasma eicosanoids levels, the animals were treated with TPPU (1-Trifluoromethoxyphenyl-3-(1-propionylpiperidin-4-yl) urea, N-[1-(1-Oxopropyl)-4-piperidinyl]-N′-[4-(trifluoromethoxy)phenyl]-urea), a soluble epoxide hydrolase inhibitor (sEHi) (HY-101294, MedChem Express). […] 12 months old (n=5; early-stage) and 16 months old (n=6; late stage) animals were subjected to treatment with sEHi. For treatment at early-stage, the drug was administered through drinking water (3 mg/L, daily) and intravenous injection (20 μg/kg, once a week) to ensure equal intake for each animal. […] Amount of water intake was measured daily. […]
Enzyme-linked immune absorbance assay (ELISA) Levels of amylin in human brain samples were measured using sandwich amylin ELISA from Millipore (EZHA-52K). Levels of amylin in human CSF and animal samples were measured using amylin sandwich ELISA from R&D system (EIA-AMY). Aβ levels in animal CSF were measured using high sensitivity electrochemiluminescence ELISA (MSD 6E10, K15200G-2, Meso Scale Discovery). […]
Arginase activity Arginase activity in rat brain capillaries were measured using arginase activity kit (MAK112, Sigma). […]
Mitochondria DNA extraction and analysis Protocol for quantifying mitochondrial DNA content was described in Ref 32. […] DNA purity was assessed by ensuring the A260/A280 ratio was >1.8. […]

ADHIP rats [2] = experiment: Histology and immunohistochemistry of brains of sEHi-treated ADHIP rats; format: in vivo, rat; conditions: treated vs untreated; for extent of axonal degeneration: MBP and LFB staining; for amylin deposition in brain capillaries: immunohistochemical analysis
Method: Pharmacological treatment on animals To increase plasma eicosanoids levels, the animals were treated with TPPU (1-Trifluoromethoxyphenyl-3-(1-propionylpiperidin-4-yl) urea, N-[1-(1-Oxopropyl)-4-piperidinyl]-N′-[4-(trifluoromethoxy)phenyl]-urea), a soluble epoxide hydrolase inhibitor (sEHi) (HY-101294, MedChem Express). […] 12 months old (n=5; early-stage) and 16 months old (n=6; late stage) animals were subjected to treatment with sEHi. For treatment at early-stage, the drug was administered through drinking water (3 mg/L, daily) and intravenous injection (20 μg/kg, once a week) to ensure equal intake for each animal. For treatment at late-stage, the drug was administered through and intravenous injection (20 μg/kg, daily, 1 month) and then through drinking water (3 mg/L, daily, 1 month). Amount of water intake was measured daily.
Histology and demyelination scoring Myelination in rat brains was analyzed by staining with Luxol fast blue (LFB) dye. Scoring analysis method was performed as described previously^15. Microhemorrhages in rat brains were stained with Prussian blue dye and analyzed as described previously^15. Congo red staining was performed on the human brains as previously^11 described.
Immunohistochemistry. Formalin fixed, paraffin embedded brain and pancreas tissues from humans, ADHIP, AD, WT, and AD-AKO rats were used. Tissues were processed as previously described^11,14,15,27. After tissue rehydration, the endogenous peroxidase was quenched in 3% H2O2 in methanol for 30 minutes. For amylin and Aβ antigen retrieval, sections were treated with 100% formic acid for 5 minutes, followed by 0.5% pepsin digestion in 5 mM HCl for 20 minutes at 37° C. To retrieve intra-neuronal amylin antigen (rat brains) as well as other antigens, tissue sections were heated in citrate buffer for 30 minutes. Non-specific antibody binding was blocked by 15% horse serum for 1 hour at room temperature (RT). Primary antibodies against amylin, human Aβ, Iba1, CD68 or myelin basic protein (MBP) was incubated on slides overnight at 4° C. Sections were then washed and incubated with secondary antibodies. Signal was developed with DAB or AEC peroxidase substrate. For co-staining with two antibodies, after the signal was developed for the first antibody, sections were then rinsed in water. Non-specific antibody binding was blocked with 10% normal goat serum, and the sections were incubated with the second primary antibody overnight at 4° C. Sections were then washed and incubated with AP-conjugated secondary antibody, and developed with StayGreen/AP chromogen substrate. Sections were mounted with aqueous mounting medium. The specificity of the amylin antibody in both human and rat brain tissues was established in previous studies^11,14,15,27.
Imaging analysis Wide-field images of stained tissue sections were generated by stitching images obtained from the 10× objective lens (Nikon NIS-Element Software). Higher magnification images for specific tissue area were obtained using the 40× objective lens. The immunoreactivity signal for each antibody was analyzed by ImageJ. Clearly defined-signal pixels were selected to establish the RGB profile of the color of interest. The threshold for each color signal was adjusted to reduce background noise. The established RGB profile and threshold were applied to a Macro script command, using Color Deconvolution plugin in ImageJ. The staining area was calculated using the following equation: […]

ADHIP rats [3] = experiment: Behavior testing of sEHi-treated ADHIP rats (composite z-score); format: in vivo, rat; conditions: late stage (>16 months old) and early stage (12 months old) cohorts, treated vs untreated
Method: Pharmacological treatment on animals To increase plasma eicosanoids levels, the animals were treated with TPPU (1-Trifluoromethoxyphenyl-3-(1-propionylpiperidin-4-yl) urea, N-[1-(1-Oxopropyl)-4-piperidinyl]-N′-[4-(trifluoromethoxy)phenyl]-urea), a soluble epoxide hydrolase inhibitor (sEHi) (HY-101294, MedChem Express). […] 12 months old (n=5; early-stage) and 16 months old (n=6; late stage) animals were subjected to treatment with sEHi. For treatment at early-stage, the drug was administered through drinking water (3 mg/L, daily) and intravenous injection (20 μg/kg, once a week) to ensure equal intake for each animal. […] Amount of water intake was measured daily.
Behavior testing Forelimb use test/Cylinder test, inclined plane, hind limb clasping test. […] Animal forelimb deficit was evaluated by forelimb-to-wall contact time in cylinder test. […] Abnormalities in the animal hind limbs were assessed by scoring the severity of hind limb clasping.
Rotarod assessment Motor coordination and balance were tested by the rotarod (Rotamex 5, Columbus Instrument, OH) test^27. […] The remaining read-outs were averaged, and a group average was calculated for each genotype. […]
Morris Water Maze Spatial learning and long-term memory retention were tested in a 1.5 m diameter Morris Water Maze, as previously described^15. […] Trials were recorded by EthoVision XT software (Noldus, VA). […]

[4] = reference 24; cited from earlier work
[5] = listed as inhibitor of soluble epoxide hydrolase (sEH)

In the case of rat amylin, the LRP1 protein levels (LRP1; ECs, 10 μM, 24-hour incubation, confocal microscopy and Western blot) is reported as “no effect”.
With `CCC(=O)N1CCC(NC(=O)Nc2ccc(OC(F)(F)F)cc2)CC1` [sEHi, 1-(1-propanoylpiperidin-4-yl)-3-[4-(trifluoromethoxy)phenyl]urea] the “brain accumulation of hypoxia markers” value (ADHIP rats [1]) was “lowered brain accumulation of hypoxia markers”, the “extent of axonal degeneration” value (ADHIP rats [2]) was “ameliorated” and the “extent of axonal degeneration” value (ADHIP rats [2]; [5]) was “reduced”. The “number of brain microhemorrhages” value (ADHIP rats [2]; Prussian blue) was “reduced”, the “amylin deposition in brain capillaries” value (ADHIP rats [2]) was “reduced capillary amylin deposition” and the “amylin deposition in brain capillaries” value (ADHIP rats [2]; [5]) was “reduced amylin deposition in brain capillaries”. The behavior deficits (ADHIP rats [3]) was “attenuation of functional decline”, the behavior deficits (ADHIP rats [3]; [5]) was “reduced behavior deficits” and the “level of circulating amylin” value [4] was “lower the level of circulating amylin”.
In the case of “miR-103 and miR-107 mimics: co-transfected miRNA mimics miR-103-3p (SEQ ID NO: 5) and miR-107-3p (SEQ ID NO: 6) (chain 1 AGCAGCAUUGUACAGGGCUAUGA; chain 2 AGCUUCUUUACAGUGUUGCCUUGU; listed as RNA, chemistry not given here)”, the “average LRP1 expression level” value (LRP1; ECs co-transfected with 100 nM mimics, 24 hours, vs miR-control, Western blot) is reported as “lower”.
